According to article PMC8164657, “Intraoperative visualization of nerves using a myelin protein-zero specific fluorescent tracer” (EJNMMI Research, 2021):
≈ marks a conversion by molar mass, not a printed value. Where “and” joins values, the source holds several entries; their conditions need not be identical. Equal values may be shown once. Residues, ends and D or L forms follow the SMILES beside them. *: point of attachment. X1 = CC1(C)C(/C=C/C=C/C=C2/N(CCCCS(=O)(=O)O)c3ccc(S(=O)(=O)O)cc3C2(C)C)=[N+](CCCCCC(=O)NCCN2C(=O)CC(*)C2=O)c2ccc(S(=O)(=O)[O-])cc21; Cy5 = far-red cyanine dye Cy5 on Cys

T1: P0 (P0-expressing RT4 D6P2T cells) (Rattus norvegicus, UniProt P06907)
T1 construct: was performed using P0-expressing RT4 D6P2T cells; host or cells: RT4 D6P2T Schwannoma cells
T1 sequence (P06907 30-248): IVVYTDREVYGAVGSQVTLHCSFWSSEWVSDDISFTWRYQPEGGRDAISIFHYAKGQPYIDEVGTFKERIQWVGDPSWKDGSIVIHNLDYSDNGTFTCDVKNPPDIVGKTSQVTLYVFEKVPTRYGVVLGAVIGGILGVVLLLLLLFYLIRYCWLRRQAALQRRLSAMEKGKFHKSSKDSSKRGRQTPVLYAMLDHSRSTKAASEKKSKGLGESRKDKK

T2: Myelin protein zero (P0) (Rattus norvegicus, UniProt P06907)
T2 chain: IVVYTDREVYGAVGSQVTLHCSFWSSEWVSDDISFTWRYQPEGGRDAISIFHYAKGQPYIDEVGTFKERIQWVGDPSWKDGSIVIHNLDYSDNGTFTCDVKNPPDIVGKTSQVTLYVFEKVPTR


What was measured:
[1] = Solubility in H2O; assay type: physicochemical; details: water; saturated solution in H2O at r.t., centrifugation, absorption of supernatant (UV/Vis)
[2] = target: T1, P0 (P0-expressing RT4 D6P2T cells); experiment: Flow cytometric saturation binding (KD); details: saturation binding 0–2000 nM, flow cytometry APC-A channel, triplicate, repeated at least three times
Protocol: Analysis of the binding affinity (KD) of Cy5-P0_1–25, Cy5-P0_41–65, Cy5-P0_61–85, Cy5-P0_81–105, Cy5-P0_95–120 and Cy5-P0_101–125 for P0 was performed using P0-expressing RT4 D6P2T cells and a previously described flow cytometric method. For saturation, binding experiments were performed for each of the fluorescent peptides in a concentration range of 0–2000 nM. All measurements were taken in triplicate, and experiments were repeated at least three times per tracer. Fluorescence was measured using a FACSCanto II flow cytometry device (BD Biosciences) in the APC-A channel. The normalized geometric means were fitted with equations in the GraphPad Prism 5 software. A fluorescence-linked immunoabsorbent assay (FLISA) that was used to confirm the specificity of Cy5-P0_101–125 for P0 is described in Additional file 1: Fluorescence-linked immunoabsorbent assay.

[3] = ref Spa et al (2); cited from earlier work
[4] = Stability at different temperatures; details: after 4 hr at -20 °C, PBS, 10–0.6 µM, relative to t=0, n = 6
Protocol: A stock solution of either non-functionalized Cy5 or Cy5-P0101-125 (10 µM in PBS) was diluted
1:1 in PBS to create a concentration range between 10 –0.6 µM. The absorbance and
fluorescence intensities of each sample were measured (t=0 h) prior to storing the samples
at different temperatures (i.e., -20, 0, 20 and 37 °C). After t = 4 h, the absorbance and
fluorescence intensities of each sample was measured. The relative intensities (compared to
t=0) of each concentration were averaged to obtain n = 6 per temperature setting.

[5] = Stability in serum; details: 24 h at 37 °C, % stable
[6] = design: method as in 2 sources, one per row (each row's own in cited_ref): ref Spa et al (2) ||| ref (2) (a number printed in a supplementary file, which may have a reference list of its own: not looked up in the article's list); details: cited from earlier work
[7] = target: T2, Myelin protein zero (P0); experiment: flow cytometry saturation binding (RT4 D6P2T cells)

Molecule | solubility thermodynamic [1] | Kd [2] | further results
CC[C@H](C)[C@H](N)C(=O)N[C@H](C(=O)N[C@H](C(=O)N[C@@H](Cc1ccc(O)cc1)C(=O)N[C@H](C(=O)N[C@@H](CC(=O)O)C(=O)N[C@@H](CCCNC(=N)N)C(=O)N[C@@H](CCC(=O)O)C(=O)N[C@H](C(=O)N[C@@H](Cc1c[nH]cn1)C(=O)NCC(=O)N[C@@H](C)C(=O)N[C@H](C(=O)NCC(=O)N[C@@H](CO)C(=O)N[C@@H](CCCNC(=N)N)C(=O)N[C@H](C(=O)N[C@H](C(=O)N[C@@H](CC(C)C)C(=O)N[C@@H](Cc1c[nH]cn1)C(=O)N[C@@H](CSC1CC(=O)N(CCNC(=O)CCCCC[N+]2=C(/C=C/C=C/C=C3/N(CCCCS(=O)(=O)O)c4ccc(S(=O)(=O)O)cc4C3(C)C)C(C)(C)c3cc(S(=O)(=O)[O-])ccc32)C1=O)C(=O)N[C@@H](CO)C(=O)N[C@@H](Cc1ccccc1)C(=O)N[C@@H](Cc1c[nH]c2ccccc12)C(=O)N[C@@H](CO)C(N)=O)[C@@H](C)O)C(C)C)C(C)C)C(C)C)[C@@H](C)O)C(C)C)C(C)C (some centres unmarked) [Cy5-P0_1–25] (H-IVVYTDREVHGAVGSRVTLHC(X1)SFWS-NH2) | 12 µM (≈ 44.5 µg/mL) | > 1000 nM | 
CC[C@H](C)[C@H](NC(=O)[C@H](C)NC(=O)[C@H](CC(=O)O)NC(=O)[C@H](CCCNC(=N)N)NC(=O)CNC(=O)CNC(=O)[C@H](CCC(=O)O)NC(=O)[C@@H]1CCCN1C(C)=O)C(=O)N[C@@H](CO)C(=O)N[C@H](C(=O)N[C@@H](Cc1ccccc1)C(=O)N[C@@H](Cc1c[nH]cn1)C(=O)N[C@@H](Cc1ccc(O)cc1)C(=O)N[C@@H](C)C(=O)N[C@@H](CCCCN)C(=O)NCC(=O)N[C@@H](CCC(N)=O)C(=O)N1CCC[C@H]1C(=O)N[C@@H](Cc1ccc(O)cc1)C(=O)N[C@H](C(=O)N[C@@H](CC(=O)O)C(=O)N[C@@H](CCC(=O)O)C(=O)N[C@H](C(=O)NCC(=O)N[C@H](C(=O)N[C@@H](CSC1CC(=O)N(CCNC(=O)CCCCC[N+]2=C(/C=C/C=C/C=C3/N(CCCCS(=O)(=O)O)c4ccc(S(=O)(=O)O)cc4C3(C)C)C(C)(C)c3cc(S(=O)(=O)[O-])ccc32)C1=O)C(N)=O)[C@@H](C)O)C(C)C)[C@@H](C)CC)[C@@H](C)CC (some centres unmarked) [Cy5-P0_41–65] (Ac-PEGGRDAISIFHYAKGQPYIDEVGTC(X1)-NH2) | 45 µM (≈ 169 µg/mL) | > 1000 nM | 
CC[C@H](C)[C@H](NC(=O)[C@H](CO)NC(=O)CNC(C)=O)C(=O)N[C@H](C(=O)N[C@H](C(=O)N[C@@H](Cc1c[nH]cn1)C(=O)N[C@@H](CC(N)=O)C(=O)N[C@@H](CC(C)C)C(=O)N[C@@H](CC(=O)O)C(=O)N[C@@H](Cc1ccc(O)cc1)C(=O)N[C@@H](CO)C(=O)N[C@@H](CC(=O)O)C(=O)N[C@@H](CC(N)=O)C(=O)NCC(=O)N[C@H](C(=O)N[C@@H](Cc1ccccc1)C(=O)N[C@H](C(=O)N[C@@H](CSC1CC(=O)N(CCNC(=O)CCCCC[N+]2=C(/C=C/C=C/C=C3/N(CCCCS(=O)(=O)O)c4ccc(S(=O)(=O)O)cc4C3(C)C)C(C)(C)c3cc(S(=O)(=O)[O-])ccc32)C1=O)C(=O)N[C@@H](CC(=O)O)C(=O)N[C@H](C(=O)N[C@@H](CCCCN)C(=O)N[C@@H](CC(N)=O)C(=O)N1CCC[C@H]1C(=O)N1CCC[C@H]1C(=O)N[C@@H](CC(=O)O)C(N)=O)C(C)C)[C@@H](C)O)[C@@H](C)O)[C@@H](C)CC)C(C)C (some centres unmarked) [Cy5-P0_81–105] (Ac-GSIVIHNLDYSDNGTFTC(X1)DVKNPPD-NH2) | 68 µM (≈ 248 µg/mL) | > 1000 nM | 
CCN1/C(=C/C=C/C=C/C2=[N+](CCCCCC(=O)O)c3ccc(S(=O)(=O)O)cc3C2(C)C)C(C)(C)c2cc(S(=O)(=O)[O-])ccc21 [Cy5] |  |  | Serum protein binding [3]: 6% ± 5% and 6%; remaining absorbance [4]: 66 ± 8%; remaining fluorescence [4]: 80 ± 10%; Stability in serum [5]: 98%; degradation when incubated with glutathione ([6]; ref (2)): 1%; Stability towards glutathione ([6]; ref Spa et al (2)): 99%
CC[C@H](C)[C@H](NC(=O)[C@H](CC(=O)O)NC(=O)[C@@H]1CCCN1C(=O)[C@@H]1CCCN1C(=O)[C@H](CC(N)=O)NC(=O)[C@H](CCCCN)NC(=O)[C@@H](NC(=O)[C@H](CC(=O)O)NC(=O)[C@H](C)NC(=O)[C@@H](NC(=O)[C@H](Cc1ccccc1)NC(=O)[C@@H](NC(C)=O)[C@@H](C)O)[C@@H](C)O)C(C)C)C(=O)N[C@H](C(=O)NCC(=O)N[C@@H](CCCCN)C(=O)N[C@H](C(=O)N[C@@H](CO)C(=O)N[C@@H](CCC(N)=O)C(=O)N[C@H](C(=O)N[C@H](C(=O)N[C@@H](CC(C)C)C(=O)N[C@@H](Cc1ccc(O)cc1)C(=O)N[C@H](C(=O)N[C@@H](Cc1ccccc1)C(=O)N[C@@H](CCC(=O)O)C(=O)N[C@@H](CCCCN)C(=O)N[C@@H](CSC1CC(=O)N(CCNC(=O)CCCCC[N+]2=C(/C=C/C=C/C=C3/N(CCCCS(=O)(=O)O)c4ccc(S(=O)(=O)O)cc4C3(C)C)C(C)(C)c3cc(S(=O)(=O)[O-])ccc32)C1=O)C(N)=O)C(C)C)[C@@H](C)O)C(C)C)[C@@H](C)O)C(C)C (some centres unmarked) [Cy5-P0_95–120] (Ac-TFTADVKNPPDIVGKTSQVTLYVFEKC(X1)-NH2) | 150 µM (≈ 589 µg/mL) | > 1000 nM | 
CC[C@H](C)[C@H](NC(=O)[C@H](CCCNC(=N)N)NC(=O)[C@H](CCC(=O)O)NC(=O)[C@H](CCCCN)NC(=O)[C@H](Cc1ccccc1)NC(=O)[C@@H](NC(=O)CNC(=O)[C@@H](NC(=O)[C@H](CCC(=O)O)NC(=O)[C@H](CC(=O)O)NC(C)=O)C(C)C)[C@@H](C)O)C(=O)N[C@@H](CCC(N)=O)C(=O)N[C@@H](Cc1c[nH]c2ccccc12)C(=O)N[C@H](C(=O)NCC(=O)N[C@@H](CC(=O)O)C(=O)N1CCC[C@H]1C(=O)N[C@@H](CCCNC(=N)N)C(=O)N[C@@H](Cc1c[nH]c2ccccc12)C(=O)N[C@@H](CCCCN)C(=O)N[C@@H](CC(=O)O)C(=O)NCC(=O)N[C@@H](CO)C(=O)N[C@H](C(=O)N[C@H](C(=O)N[C@H](C(=O)N[C@@H](CSC1CC(=O)N(CCNC(=O)CCCCC[N+]2=C(/C=C/C=C/C=C3/N(CCCCS(=O)(=O)O)c4ccc(S(=O)(=O)O)cc4C3(C)C)C(C)(C)c3cc(S(=O)(=O)[O-])ccc32)C1=O)C(N)=O)[C@@H](C)CC)C(C)C)[C@@H](C)CC)C(C)C (some centres unmarked) [Cy5-P0_61–85] (Ac-DEVGTFKERIQWVGDPRWKDGSIVIC(X1)-NH2) | 6 µM (≈ 23.8 µg/mL) | > 1000 nM | 
Ac-KNPPDIVGKTSQVTLYVFEKVPTRYC(Cy5)-NH2 [Cy5-P0(101-125)] |  |  | Kd [7]: 105 nM
